Results taken from US20050080113A1, “Medicinal compositions” (priority 2001, published 2005).

Row | SMILES | melting point
1 | Cc1cccc(-c2nc(C3CCN(C)CC3)sc2-c2ccnc(NC(=O)c3ccccc3)c2)c1 [L 44, N-[4 [4 (3 methylphenyl)-2 (1 methylpiperidin-4 yl)-1,3-thiazol-5 yl]-2 pyridyl]benzamide] | 151 to 152 °C
2 | CCc1nc(-c2cccc(Br)c2)c(-c2ccnc(NC(=O)OC(C)(C)C)c2)s1 [H 75-1, 4 (3 bromophenyl)-5 [2-(tert-butoxycarbonylamino)-4 pyridyl]-2 ethyl-1,3 thiazole] | 172 to 174 °C
3 | Cc1cccc(-c2nc(-c3ccccc3Cl)sc2-c2ccnc(C)c2)c1 [H 14-1, 2 (2 chlorophenyl)-4 (3-methylphenyl)-5 (2 methyl-4 pyridyl)-1,3 thiazole] | 83 to 84 °C
4 | Cc1cccc(-c2nc(-c3ccc(S(C)(=O)=O)cc3)sc2-c2ccnc(N(C)C3CCCCC3)c2)c1 [H 37-2, N-cyclohexyl-N-methyl-4-[4 (3 methylphenyl)-2 (4 methylsulfonylphenyl)-1,3 thiazol-5-yl]-2 pyridylamine] | 173 to 174 °C
5 | CCc1nc(-c2cccc(Cl)c2)c(-c2ccnc(NC(=O)CC3CCCC3)c2)s1 [H 90-1, N-[4 [4 (3 chlorophenyl)-2-ethyl-1,3 thiazol-5 yl]-2 pyridyl]cyclopentylacetamide] | 121 to 122 °C
6 | Cc1cccc(-c2nc(N(C)C(=O)c3ccc(Cl)nc3)sc2-c2ccnc(NC3CCCCC3)c2)c1 [H 44-4, 6 chloro-N-[5 (2-cyclohexylamino-4 pyridyl)-4 (3 methylphenyl)-1,3 thiazol-2-yl]-N-methylnicotinamide] | 171 to 172 °C
7 | CCc1nc(-c2cccc(C)c2)c(-c2ccnc(NC(=O)C3CCCC3)c2)s1 [H 29-1, N-[4 [2 ethyl-4 (3-methylphenyl)-1,3 thiazol-5 yl]-2-pyridyl]cyclopentanecarboxamide] | 123 to 125 °C
8 | Cc1cccc(-c2nc(-c3ccc(S(C)(=O)=O)cc3)sc2-c2ccnc(CO)c2)c1 [H 72, 4 [4 (3 methylphenyl)-2 (4 methylsulfonylphenyl)-1,3 thiazol-5 yl]-2 pyridylmethanol] | 172 to 173 °C
9 | CCC(=O)Nc1cc(-c2sc(CC)nc2-c2ccccc2)ccn1 [H 84-1, N-[4 (2 ethyl-4 phenyl-1,3-thiazol-5 yl)-2 pyridyl]propionamide] | 139 to 140 °C
10 | Cc1cc(C)cc(-c2nc(-c3ccc(S(C)(=O)=O)cc3)sc2-c2ccnc(C)c2)c1 [H 58-1, 4 (3,5 dimethylphenyl)-5-(2 methyl-4 pyridyl)-2 (4 methylsulfonylphenyl)-1,3 thiazole] | 196 to 197 °C
11 | CCC(=O)Nc1cc(-c2sc(C3CCN(C)CC3)nc2-c2cccc(Cl)c2)ccn1.Cl.Cl | 350 to 351 °C
12 | Cc1cccc(-c2nc(-c3ccc(F)cc3F)sc2-c2ccnc(C)c2)c1 [H 14-5, 2 (2,4 difluorophenyl)-4-(3 methylphenyl)-5 (2 methyl-4 pyridyl)-1,3 thiazole] | 90 to 91 °C
13 | Cc1cccc(-c2nc(-c3ccc(F)cc3)sc2-c2ccnc(NC(=O)Cc3ccccc3)c2)c1 [D 14, N-[4-[2-(4-fluorophenyl)-4-(3-methylphenyl)-1,3-thiazol-5-yl]-2-pyridyl]phenylacetamide] | 187 to 190 °C
14 | Cc1cccc(-c2nc(NC(=O)NOc3ccccc3)sc2-c2ccnc(C)c2)c1 [H 64, N-[4 (3 methylphenyl)-5 (2-methyl-4 pyridyl)-1,3 thiazol-2 yl]-N′-phenyloxyurea] | 154 to 155 °C
15 | CC(=O)Nc1nc(-c2cc(C)cc(C)c2)c(-c2cc(C)nc(C)c2)s1 [H 40-3, N-[4 (3,5 dimethylphenyl)-5 (2,6 dimethyl-4 pyridyl)-1,3 thiazol-2 yl]acetamide] | 266 to 267 °C
16 | CSc1ccc(-c2nc(-c3cccc(Cl)c3)c(-c3ccnc(NC(C)=O)c3)s2)cc1 [H 30-5, N-[4 [4 (3 chlorophenyl)-2 [4 (methylthio)phenyl]-1,3 thiazol-5 yl]-2-pyridyl]acetamide] | 207 to 208 °C
17 | CCOC(=O)c1nc(-c2cccc(C)c2)c(-c2ccnc(C)c2)s1 [H 14-12, ethyl [4 (3-methylphenyl)-5 (2 methyl-4 pyridyl)-1,3 thiazol-2-yl]carboxylate] | 97 to 98 °C
18 | Cc1cccc(-c2nc(-c3ccc(S(C)(=O)=O)cc3)sc2-c2ccnc(NCc3cccs3)c2)c1 [D 25-5, N-[4 [4 (3 methylphenyl)-2-(4 methylsulfonylphenyl)-1,3 thiazol-5 yl]-2 pyridyl]-N-(2-thienylmethyl)amine] | 107 to 109 °C
19 | CCC(=O)Nc1cc(-c2sc(C(C)O)nc2-c2cccc(Cl)c2)ccn1 (centres unmarked) [H 105, N-[4 [4 (3 chlorophenyl)-2-(1 hydroxyethyl)-1,3 thiazol-5 yl]-2 pyridyl]propionamide] | 131 to 132 °C
20 | Cc1cccc(-c2nc(-c3ccc(S(C)(=O)=O)cc3)sc2-c2ccnc(NC3CCCC3)c2)c1 [H 36-7, N-cyclopentyl-4-[4-(3-methylphenyl)-2-(4-methylsulfonylphenyl)-1,3-thiazol-5-yl]-2-pyridylamine] | 154 to 156 °C
21 | Cc1cccc(-c2nc(-c3ccc(S(C)(=O)=O)cc3)sc2-c2cc(C)nc(C)c2)c1 [H 58-2, 5 (2,6 dimethyl-4-pyridyl)-4 (3 methylphenyl)-2 (4 methylsulfonylphenyl)-1,3-thiazole] | 182 to 184 °C

Row | SMILES | melting point
22 | CCC(=O)Nc1cc(-c2sc(CC)nc2-c2ccc(Cl)cc2)ccn1 [H 84-6, N-[4 [4 (4 chlorophenyl)-2-ethyl-1,3 thiazol-5 yl]-2 pyridyl]propionamide] | 152 to 153 °C
23 | CCc1nc(-c2cccc(C)c2)c(-c2ccnc(NC(=O)c3cc(Cl)cc(Cl)c3)c2)s1 [L 39-6, 3,5 dichloro-N-[4 [2 ethyl-4 (3 methylphenyl)-1,3 thiazol-5 yl]-2 pyridyl]benzamide] | 77 to 78 °C
24 | CSCCc1nc(-c2cccc(Cl)c2)c(-c2ccnc(N)c2)s1 [H 100-1, 4 [4 (3 chlorophenyl)-2-[2 (methylthio)ethyl]-1,3 thiazol-5 yl]-2 pyridylamine] | 96 to 97 °C
25 | COc1ccc(-c2nc(N)sc2-c2ccncc2)cc1 [13-14, [4-(4-methoxyphenyl)-5-(4-pyridyl)-1,3-thiazol-2-yl]amine] | 282 to 284 °C
26 | CCC(=O)Nc1cc(-c2sc(C(C)=O)nc2-c2cccc(C)c2)ccn1 [H 106, N-[4 [2 acetyl-4 (3 methylphenyl)-1,3 thiazol-5 yl]-2-pyridyl]propionamide] | 121 to 123 °C
27 | CCc1nc(-c2cccc(C(=O)OC)c2)c(-c2ccnc(N)c2)s1 [H 78, methyl 3 [5 (2 amino-4 pyridyl)-2 ethyl-1,3 thiazol-4-yl]benzoate] | 173 to 174 °C
28 | COc1ccc(-c2nc(C)sc2-c2ccnc(NC(=O)Cc3ccccc3)c2)cc1 [D 15-1, N-[4 [4 (4 methoxyphenyl)-2 methyl-1,3 thiazol-5 yl]-2 pyridyl]phenylacetamide] | 118 to 120 °C
29 | CCNC(=O)Nc1nc(-c2cc(C)cc(C)c2)c(-c2ccncc2)s1 [23-201, N-[4 (3,5 dimethylphenyl)-5 (4 pyridyl)-1,3 thiazol-2 yl]-N′-ethylurea] | 202 to 203 °C
30 | Cc1cccc(-c2nc(-c3ccc([S+](C)[O-])cc3)sc2-c2ccnc(C)c2)c1 (centres unmarked) [H 54, 4-(3-methylphenyl)-5-(2-methyl-4-pyridyl)-2-(4-methylsulfinylphenyl)-1,3-thiazole] | 128 to 130 °C
31 | CC(=O)Nc1nc(-c2cccc(C)c2)c(-c2cc(C)nc(C)c2)s1 [H 40-2, N-[5 (2,6 dimethyl-4-pyridyl)-4 (3 methylphenyl)-1,3 thiazol-2 yl]acetamide] | 185 to 187 °C
32 | CCCc1nc(-c2cccc(Cl)c2)c(-c2ccnc(NC(=O)CC)c2)s1 [H 30-9, N-[4-[4-(3-chlorophenyl)-2-propyl-1,3-thiazol-5-yl]-2-pyridyl]propionamide] | 103 to 104 °C
33 | Cc1cccc(-c2nc(-c3ccc([S+](C)[O-])cc3)sc2-c2cc(C)nc(C)c2)c1 (centres unmarked) [H 55, 5 (2,6 dimethyl-4 pyridyl)-4 (3 methylphenyl)-2 (4-methylsulfinylphenyl)-1,3 thiazole] | 133 to 134 °C
34 | CCCCCC(=O)Nc1cc(-c2sc(CC)nc2-c2cccc(C)c2)ccn1 [H 87-2, N-[4 [2 ethyl-4 (3-methylphenyl)-1,3 thiazol-5 yl]-2 pyridyl]hexanamide] | 84 to 85 °C
35 | COc1ccc(-c2nc(C)sc2-c2ccnc(NCc3ccccc3)c2)cc1 [D 19-1, N-benzyl-N-[4 [4 (4 methoxyphenyl)-2 methyl-1,3 thiazol-5 yl]-2 pyridyl]amine] | 132 to 133 °C
36 | Cc1cccc(C2=NCSC2(c2ccnc(C)c2)N2CCOC2=O)c1 (centres unmarked) [H 65, 3 [4 (3 methylphenyl)-5 (2 methyl-4 pyridyl)-1,3 thiazol-5-yl]-oxazolidin-2 one] | 80 to 82 °C
37 | Cc1cccc(-c2nc(-c3ccccc3Cl)sc2-c2ccnc(NCCCc3ccccc3)c2)c1 [D 19-16, N-[4 [2 (2 chlorophenyl)-4 (3 methylphenyl)-1,3 thiazol-5 yl]-2 pyridyl]-N-(3-phenylpropyl)amine] | 101 to 102 °C
38 | Cc1cc(C)cc(-c2nc(NC(=O)c3ccccc3)sc2-c2ccncc2)c1 [23-197, N-[4 (3,5 dimethylphenyl)-5 (4 pyridyl)-1,3 thiazol-2-yl]benzamide] | 285 to 286 °C
39 | Cc1cccc(-c2nc(-c3ccc(S(C)(=O)=O)cc3)sc2-c2ccnc(NCc3ccc4ccccc4c3)c2)c1 [D 21-7, N-[4 [4 (3 methylphenyl)-2-(4 methylsulfonylphenyl)-1,3 thiazol-5 yl]-2 pyridyl]-N-(2-naphthylmethyl)amine] | 167 to 168 °C
40 | Cc1cc(C)cc(-c2nc(N)sc2-c2ccncc2)c1 [23-133, [4 (3,5 dimethylphenyl)-5 (4 pyridyl)-1,3 thiazol-2 yl]amine] | 242 to 244 °C
41 | Cc1cccc(-c2nc(-c3ccc(S(C)(=O)=O)cc3)sc2-c2cc[n+]([O-])c(C)c2)c1 [H 68-1, 4 [4 (3 methylphenyl)-2-(4 methylsulfonylphenyl)-1,3 thiazol-5 yl]-2 methylpyridine N-oxide] | 197 to 198 °C
